The values that follow come from the METLIN SMRT retention time set (Domingo-Almenara et al. 2019).

This series in a line: gradient 5% acetonitrile 3 min, to 50% in 2 min, to 85% in 15 min, held 3 min, 100 µL/min. To be noted: column: Zorbax Extend-C18 2.1 x 50 mm; eluents: water / acetonitrile, 0.1% formic acid. In short, it runs like this:
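Retention times come from adduct peaks that were picked computationally and then checked by hand. The standards, pure and pooled in mixtures of ~100 molecules, were run on a Zorbax Extend-C18 column (2.1 × 50 mm, 1.8 μm) at 100 μL/min with water and acetonitrile, each with 0.1% formic acid. Detection was by quadrupole time-of-flight mass spectrometry in positive and negative ionization mode, with a dead volume of 40 μL and a dwell volume of 900 μL.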
As for `Cc1cccc(NS(=O)(=O)c2cn(CC(C)C)c3ncccc23)c1C`, the RP-LC retention time came out at 1070 s.
Then `COc1ccccc1NC(=O)Cn1c(=O)c2cc(-c3ccco3)nn2c2ncccc21`, with 804 s.
The same measure for `O=C(Nc1nnc(-c2ccccc2Cl)o1)c1cccc([N+](=O)[O-])c1`: 767 s; for `CCC(=O)N1c2ccc(S(=O)(=O)N3CCCCC3)cc2CC1C(=O)NC1CCCCC1` (centres undefined): 895 s; for `Cc1cc(F)ccc1NC(=O)C1CCCN1S(=O)(=O)c1cc2c(cc1C)NC(=O)CO2` (centres undefined): 761 s.
Then `Cc1ccc(CNc2c(-c3cccc(Br)c3)nc3ncccn23)cc1`, with 927 s; and `CN1CCN(C(=O)c2cc3n(n2)CC(C)(C(=O)NCc2ccc(F)cc2)N(C)C3=O)CC1` (centres undefined), with 576 s; and `O=C(Nc1ccc(F)cc1Cl)c1cnc(-c2ccccc2)nc1-c1ccncc1`, with 976 s.
In the case of `COc1ccc(-c2nnc(Cc3nc(-c4ccc(F)cc4)no3)o2)cc1`, the RP-LC retention time was found to be 954 s.
For the molecule `CCOc1nc2ccccc2nc1N1CCCC(C(=O)Nc2c(Cl)cccc2Cl)C1` (centres undefined), the RP-LC retention time was 1290 s.
Take `c1ccc(-c2n[nH]c(CC3CCNC3)n2)cc1` (centres undefined): the RP-LC retention time was found to be 570 s.
With `Cc1nnc(C2CCCCCN2C(=O)c2occc2C)o1` (centres undefined), the RP-LC retention time was determined as 718 s.
The same measure for `CCN1CCN(C(=O)CCc2cc(OC)c(OC)c(OC)c2)c2cccnc21`: 613 s; for `CCN(CC)c1nc2ccsc2c(=O)n1CCC(=O)NCc1ccccc1F`: 823 s; for `CCn1ccc2c(cc(C(=O)Nc3ccccc3Br)n2C)c1=O`: 758 s.
The same measure for `CCc1noc(-c2cc(=O)n(CC(=O)Nc3ccccc3Cl)c3ccccc23)n1`: 987 s; for `COc1cccc(-c2cn3ccn(-c4ccccc4OC)c(=O)c3n2)c1`: 780 s.
With `O=C(NC1CCCCCC1)c1ccc2ccnc(N3CCN(c4ccccc4)CC3)c2c1`, the RP-LC retention time was determined as 922 s.
The molecule `Cn1c(CNC(=O)CCc2cc3ccccc3[nH]c2=O)nc2ccccc21` yielded an RP-LC retention time of 601 s.
Then `COc1ccc2c(c1)C1(CCN(S(=O)(=O)c3cc(OC)ccc3OC)C1)C(=O)N2C` (centres undefined), with 879 s.
With `O=C(Nc1ccc2c(c1)CCC2)c1ccnc(N2CCNC(c3ccccc3)C2)c1` (centres undefined), the RP-LC retention time amounted to 742 s.
The same measure for `O=C(C1CCOC1)N1CCC2(CC1)NCCc1c2[nH]c2ccccc12` (centres undefined): 608 s; for `Cc1nn(CC(=O)NCc2ccco2)c(=O)c2c(-n3cccc3)n(-c3ccc(Cl)cc3)nc12`: 990 s; for `CCN(Cc1ccccc1)C(=O)[C@H]1[C@@H](c2cc(OC)c(OC)c(OC)c2)c2cc3c(cc2[C@@H](O)[C@@H]1CO)OCO3`: 770 s.
Then `COc1ccc(-n2c(CN3CCN(C(=O)NCc4ccco4)CC3)nc3cccnc32)cc1`, with 617 s; and `O=C(NCc1ccc(Cl)cc1)c1ccc(NC(=O)C2CC2)cc1N1CCOCC1`, with 843 s.
Then `CCCCNC(=O)C1CCCN(C(=O)c2[nH]c(C)c(C(=O)OCC)c2C)C1` (centres undefined), with 756 s.
For the molecule `O=C(C1=CN(c2ccccc2F)c2cc(F)ccc2S1(=O)=O)N1CCCCC1`, the RP-LC retention time was found to be 848 s.
Then `CN1C(=O)COc2cc(-c3noc(C(=O)NC4CC4)n3)ccc21`, with 718 s; and `Cc1noc2nc(CCC(=O)NCc3ccccn3)nc(N3CC(C)CC(C)C3)c12` (centres undefined), with 690 s.
Then `CCc1ccccc1NC(=O)Cn1cnc2c(sc3nc(-c4ccccc4)ccc32)c1=O`, with 1030 s; and `CN(C)c1ccc(C(=O)N2CCCC2COc2ccc(C(=O)N3CCCC3)cc2)cc1` (centres undefined), with 748 s.
With `Cn1c(=O)n(CC(=O)N2CCCCCC2)c(=O)c2cnc(-c3ccccc3)nc21`, the RP-LC retention time was determined as 987 s.
`COCCCNC(=O)c1nnc(-c2ccc(S(=O)(=O)N3CCC(C)CC3)cc2)o1` came in with an RP-LC retention time of 762 s.
The same measure for `CCOC(=O)c1c(C)oc2nc(C)nc(Nc3ccc4c(c3)OCCO4)c12`: 1200 s; for `CSc1cccc(Nc2c(C(=O)N3CCSCC3)cnc3nc(C)ccc23)c1`: 581 s.
Consider `O=C(c1ccc2c(c1)OCO2)N1CCN(c2ccc(=O)n(-c3ccc(Cl)cc3)n2)CC1`, for which the RP-LC retention time was determined as 791 s.
Then `CC(C)c1ccc(NC(=O)C2CCN(S(=O)(=O)c3ccc4[nH]c(=O)sc4c3)CC2)cc1`, with 913 s; and `Cc1nc(C(=O)NC2CCCCC2)c(C)n1C1CCN(C)CC1`, with 555 s; and `CCc1ccc(C2=C(C)C(N3CCCN(C(=O)NC(C)CC)CC3)=NS2(=O)=O)cc1` (centres undefined), with 866 s.
With `CCCN1C(=O)COc2ccc(-c3csc(NC(=O)c4ccc(OC)cc4)n3)cc21`, the RP-LC retention time is 1040 s.
Molecule `O=C(Cn1c(=O)c(CCC(=O)NC2CCCC2)nc2ccccc21)Nc1ccc(Cl)cc1F` gave an RP-LC retention time of 885 s.
The molecule `Cc1cc(C2CCCN2C(=O)Nc2ccc(F)c(Cl)c2)no1` (centres undefined) came in with an RP-LC retention time of 808 s.
Then `CC1CCN(S(=O)(=O)c2ccc(-c3nnc(C(=O)NCc4cccs4)o3)cc2)CC1`, with 910 s.
Then `CCCCn1c(=O)c2ccccc2n(Cc2nc(-c3cccc(C)c3)no2)c1=O`, with 1230 s.
Then `COc1cc(OC)c(NC(=O)NCCCn2c(C(F)(F)F)nc3cccnc32)cc1Cl`, with 836 s; and `Cc1ccc(C(=O)N2CCC(Nc3ncnc4c3CCC4)CC2)cn1`, with 583 s.
`Cc1cc(=O)n(CC(=O)Nc2ccc(Br)cc2F)c(N2CCC(C)CC2)n1` displayed an RP-LC retention time of 750 s.
Molecule `CCCN(c1ccc(OCC)cc1)c1nc(C(=O)OCC)nc2ccccc12` came in with an RP-LC retention time of 1120 s.
Regarding `COCCNC(=O)NCCC1CCN(S(=O)(=O)c2ccc(C)cc2)CC1`, the RP-LC retention time came out at 686 s.
As to `CC1(c2ccccc2)CC(C)(C)N(C(=O)CN2CCOCC2)c2ccccc21` (centres undefined), the RP-LC retention time was 744 s.
The same measure for `O=C(c1cocn1)N1CC(F)(F)C[C@H]1c1nnc(-c2ccccc2)o1`: 761 s; for `Cc1noc(-c2ccc(OC3CN(C(=O)C(C)c4ccccc4)C3)cc2)n1` (centres undefined): 934 s; for `Cc1ccc(S(=O)(=O)Cc2nc(-c3cccc(Br)c3)no2)cc1`: 1040 s.
On to `Cc1nnc(-c2ccc(S(=O)(=O)N3CCN(C4CCCCC4)CC3)o2)o1`, for which the RP-LC retention time came to 622 s.
The same measure for `CCCNC(=O)C1CCCN(c2ccc(SCC(=O)Nc3cc(F)ccc3C)nn2)C1` (centres undefined): 700 s.
Then `CCCN1C(=O)c2ccccc2C(C(=O)NC2CC2)C1c1cc(OC)c(OC)c(OC)c1` (centres undefined), with 696 s; and `O=C(NC1CCCCC1)C1CCN(Cc2cc3ccccc3n2Cc2ccc(Cl)cc2)CC1`, with 853 s; and `Oc1cccc(-c2nc3cnc(Br)cn3c2Nc2ccc3c(c2)OCO3)c1`, with 786 s.
The same measure for `CCN(CC)c1nc2cc(C(=O)OC)ccc2c(=O)n1-c1ccc2c(c1)OCO2`: 1080 s; for `COc1ccc(CNc2ccc(-c3nc(-c4ccc(F)cc4)no3)cn2)cc1`: 1220 s; for `COCCc1noc(C2CN(C(=O)c3ccoc3)C2)n1`: 629 s.
Turning to `O=C(NCC1CC(=O)N(Cc2ccccc2)C1)c1cccc(Cl)c1` (centres undefined), the RP-LC retention time amounted to 727 s.
The same measure for `c1cncc(-c2n[nH]c(C3CCCN(Cc4ccsc4)C3)n2)c1` (centres undefined): 552 s; for `COCCCNC(=O)C1COc2ccc(NC(=O)c3ccc(Br)cc3)cc2C1` (centres undefined): 788 s; for `O=C(NCCc1csc(-c2ccccc2)n1)[C@H]1CCCN1C(=O)C1CCCC1`: 814 s.
The same measure for `CN1C(=O)Cc2cc(S(=O)(=O)CCC(=O)N3CCN(c4ccccn4)CC3)ccc21`: 902 s; for `Cc1cc(Cl)ccc1S(=O)(=O)Nc1ccc(Cn2cncn2)cc1`: 782 s.
Turning to `CCOC(=O)Cc1ccc(NC(=O)NC2CCN(c3ccc(F)c(C)c3)C2=O)cc1` (centres undefined), the RP-LC retention time was 853 s.
Then `O=C(Nc1nc(-c2ccccc2Cl)cs1)c1cccnc1`, with 858 s; and `COc1ccc(-c2ccnc3nc(Cc4ccc(F)cc4)nn23)cc1`, with 920 s.
Then `CCn1nccc1C(=O)NCCn1c(=O)n(Cc2ccc(C)cc2)c2cccnc21`, with 773 s; and `CC1CCc2c(sc3ncnc(SCC(=O)N4CCOCC4)c23)C1` (centres undefined), with 860 s; and `Cn1c(-c2cccc(C(=O)NCc3cccs3)c2)nc2cccnc21`, with 688 s.
Then `CCCS(=O)(=O)N1CCC(OCCOCc2ccccc2)CC1`, with 937 s.
Consider `c1ccc(-c2noc(CN3CCCCC3c3nc(C4CC4)no3)n2)nc1` (centres undefined), for which the RP-LC retention time was determined as 784 s.
The same measure for `CCc1nc(-n2cccc2)sc1C(=O)Nc1ccc(F)cc1`: 1080 s; for `O=C(NCc1cccs1)c1cccc2cnccc12`: 589 s.
Take `CCn1cccc1-c1nc(C)c(C(=O)Nc2ccc(C(C)C)cc2)s1`: the RP-LC retention time came to 1310 s.
